Values belong to the compound of their own block, whether it stands above or below them.
What was measured:
[1] = physchem
Description: The reduction attributes of these compounds are subject to pH conditions, specifically, in the alkaline media of the cement mixture where the pH is around 12.

[2] = Dimerization of thiol monomers under oxidizing conditions, evaluated by reverse-phase HPLC; format: physicochemical; conditions: about 0.56 M thiol, 10% NaOH, 3.0% hydrogen peroxide
Experimental: In this example, reference will be made to FIGS. 1 and 2. In this example, the role of thiol group was evaluated by oxidizing the monomers generating a dimer. About 10% by volume aqueous NaOH solution was added to about 0.56 M of mercapto (thiol) series (cysteine, cysteine methyl ester, beta-mercaptoethanol, and dithiothreitol), then a […] step was performed using about 3.0% by volume aqueous solution of hydrogen peroxide. Subsequently, centrifugation was performed at about 3000 rpm for about 5 minutes, then the supernatant was discarded and the pellets were recrystallized followed by rinsing with a few drops of cold water.
The dimerization process was evaluated using reverse-phase HPLC. For the analysis, about 5 μL injection volume was used. The mobile phase consisted of a mixture of acetonitrile and water in a ratio of about 65:35. […] Two distinct peaks were identified at distinct retention times.
The modification of the carboxylic group to a methyl ester increased the acidity of the ammonium protons relative to the thiol protons. […] The inhibitory effect of the ester group on disulfide bond formation was attributed to the presence of the methyl ester group in cysteine methyl ester.

pKa of the OH [1]: 16.25 | pKa of the SH [1]: 8.51
Compound: β-mercapto ethanol [β-mercaptoethanol]

pKa ([1]; pKa of the first SH): 8.12 | pKa ([1]; pKa of the second SH): 8.72
Compound: O[C@H](CS)[C@H](O)CS (racemic) [dithiothreitol]

pKa ([1]; pKa of the OH): 15.8 | pKa ([1]; pKa of the primary SH): 8.95 | pKa ([1]; pKa of the secondary SH): 8.05
Compound: OCC(S)CS (stereo not drawn) [2,3-disulfanylpropan-1-ol]

pKa ([1]; pKa of the COOH): 2.35 | pKa ([1]; pKa of the NH2): 9.54 | pKa ([1]; pKa of the SH): 6.61 | dimer (disulfide) formation on oxidation [2]: successful formation of cysteine dimer
Compound: N[C@@H](CS)C(=O)O [cysteine]

pKa ([1]; pKa of the primary OH): 15.8 | pKa ([1]; pKa of the primary SH): 8.93 | pKa ([1]; pKa of the secondary OH): 14.3 | pKa ([1]; pKa of the secondary SH): 7.98
Compound: OCC(O)C(S)CS (stereo not drawn) [3,4-disulfanylbutane-1,2-diol, 3,4-disulfanyl-butane-1,2-diol]

Compound: COC(=O)[C@@H](N)CS [cysteine methyl ester]
pKa [1]: 6.86 | pKa ([1]; pKa of the NH2): 7.93 | dimer (disulfide) formation on oxidation [2]: unable to form a dimer

Source: patent publication US20250214896A1, “THIOL / SULFIDE CONTAINING CONCRETE COMPOSITION” (Yarmouk University, priority 2024, published 2025)
